Laboratory results: ChEMBL document CHEMBL3886637, “Pyridine-2-amides useful as CB2 agonists” (2016)

Columns and labels:
[1] = biological target: Cannabinoid receptor 2 (Homo sapiens, UniProt P34972); assay: (§1) cAMP Assay: CHO cells expressing human CB1 or CB2 receptors are seeded 17-24 hours prior to the experiment 50.000 cells per well in a black 96 well plate with flat clear bottom (Corning Costar #3904) in DMEM (Invitrogen No. 31331), 1×HT supplement, with 10% fetal calf serum and incubated at 5% CO2 and 37 °C. in a humidified incubator. The growth medium was exchanged with Krebs Ringer Bicarbonate buffer with 1 mM IBMX and incubated at 30 °C. for 30 min. Compounds were added to a final assay volume of 100 μl and incubated for 30 min at 30 °C. Using the cAMP-Nano-TRF detection kit the assay (Roche Diagnostics) was stopped by the addition of 50 μl lysis reagent (Tris, NaCl, 1.5% Triton X100, 2.5% NP40, 10% NaN3) and 50 μl detection solutions (20 μM mAb Alexa700-cAMP 1:1, and 48 μM Ruthenium-2-AHA-cAMP) and shaken for 2 h at room temperature. The time-resolved energy transfer is measured by a TRF reader (Evotec Technologies GmbH), equipped with a ND:YAG laser as excitation source. The plate is measured twice with the excitation at 355 nm and at the emission with a delay of 100 ns and a gate of 100 ns, total exposure time 10 s at 730 (bandwidth 30 nm) or 645 nm (bandwidth 75 nm), respectively. The FRET signal is calculated as follows: FRET=T730-Alexa730-P(T645-B645) with P=Ru730-B730/Ru645-B645, where T730 is the test well measured at 730 nM, T645 is the test well measured at 645 nm, B730 and B645 are the buffer controls at 730 nm and 645 nm, respectively. cAMP content is determined from the function of a standard curve spanning from 10 μM to 0.13 nM cAMP.; type: functional, cell-based
Cannabinoid receptor 2, sequence (P34972 whole entry): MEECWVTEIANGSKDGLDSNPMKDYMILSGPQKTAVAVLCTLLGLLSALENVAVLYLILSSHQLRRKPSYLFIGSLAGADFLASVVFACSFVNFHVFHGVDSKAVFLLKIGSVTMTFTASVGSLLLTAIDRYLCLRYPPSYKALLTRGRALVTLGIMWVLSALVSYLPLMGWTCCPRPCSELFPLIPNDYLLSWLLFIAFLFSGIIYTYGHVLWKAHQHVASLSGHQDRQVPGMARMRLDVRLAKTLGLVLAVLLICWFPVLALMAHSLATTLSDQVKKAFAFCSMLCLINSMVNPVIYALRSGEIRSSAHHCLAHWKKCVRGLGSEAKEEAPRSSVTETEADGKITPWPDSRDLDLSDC

[2] = biological target: Cannabinoid receptor 1 (Homo sapiens, UniProt P21554); assay: as §1; type: functional, cell-based
Cannabinoid receptor 1, sequence (P21554 whole entry): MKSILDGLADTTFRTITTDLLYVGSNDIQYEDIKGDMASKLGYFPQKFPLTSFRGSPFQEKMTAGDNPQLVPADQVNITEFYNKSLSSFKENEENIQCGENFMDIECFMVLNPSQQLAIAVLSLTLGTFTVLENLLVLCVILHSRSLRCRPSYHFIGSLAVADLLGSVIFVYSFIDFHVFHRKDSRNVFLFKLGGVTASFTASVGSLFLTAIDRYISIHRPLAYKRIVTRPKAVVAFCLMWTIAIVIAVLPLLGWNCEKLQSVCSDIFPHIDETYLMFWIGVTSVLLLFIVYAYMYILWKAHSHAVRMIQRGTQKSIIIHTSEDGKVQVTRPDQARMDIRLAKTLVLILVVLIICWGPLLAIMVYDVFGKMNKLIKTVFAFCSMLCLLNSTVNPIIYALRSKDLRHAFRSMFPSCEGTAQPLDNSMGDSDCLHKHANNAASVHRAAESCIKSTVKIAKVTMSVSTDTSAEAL

## CC1(C)CC(C(N)=O)N(C(=O)c2ccc(N3CC(F)(F)C3)c(OCC3CC3)n2)C1 (stereo not drawn)
[1]
  EC50: 0.0066 µM

## CC(C)N(C(=O)c1ccc(N2CC(F)(F)C2)c(OCC2CC2)n1)C(C)C
[2]
  EC50: > 10 µM
[1]
  EC50: 0.0126 µM
